Reference: patent publication US20230321055A1, “PREVENTIVE TREATMENT OF MIGRAINE” (priority 2022, published 2023)

System: participants with chronic migraine
Test: Same phase 3 study: safety and tolerability (adverse events, hepatic laboratory values), safety population
Format: in vivo, human
Description: A phase 3, multicenter, randomized, double-blind, placebo-controlled, parallel-group study was carried out to evaluate the efficacy, safety, and tolerability of atogepant for the prevention of chronic migraine. A total of 778 participants from 133 sites in North America, Europe, and East Asia were randomized to one of three treatment arms (placebo, Atogepant 30 mg BID, and Atogepant 60 mg QD) in a 1:1:1 ratio.
This study comprised a 4-week screening and baseline period, a 12-week double blind treatment period, and a follow-up period of 4 additional weeks. The total study duration was 20 weeks. Participant disposition information and other relevant participant screening information may also be found in FIG. 19.
The overall safety profile of the study was consistent with safety findings observed in previous studies of atogepant in an episodic migraine population. […] For the safety population, the mean treatment duration for atogepant 30 mg BID, atogepant 60 mg QD, and placebo group were 80.1 days, 79.7 days, and 80.3 days, respectively. Serious adverse events occurred in 2.7% of patients treated with atogepant 60 mg QD and 1.6% of patients treated with atogepant 30 mg BID, compared to 1.2% of patients with placebo.
Table 11 presents the number and percentage of participants with post-baseline hepatic-related laboratory parameter values of clinical interest. There were five participants who had post-baseline ALT or AST elevations (≥3*ULN), with 1/254 (0.4%), 2/255 (0.8%), and 2/257 (0.8%) in the placebo, atogepant 30 mg BID, and atogepant 60 mg QD groups, respectively. All cases in the atogepant dose groups were adjudicated as unlikely to be related to study drug. No participants met potential Hy's law criteria.

[1] = 30 mg BID, safety population (N = 257)
[2] = 60 mg QD, safety population (N = 261)

C[C@@H]1[C@H](c2c(F)ccc(F)c2F)C[C@H](NC(=O)c2cnc3c(c2)C[C@@]2(C3)C(=O)Nc3ncccc32)C(=O)N1CC(F)(F)F [Atogepant, (S)—N—((3S,5S,6R)-6-methyl-2-oxo-1-(2,2,2-trifluoroethyl)-5-(2,3,6-trifluorophenyl)piperidin-3-yl)-2′-oxo-1′,2′,5,7-tetrahydrospiro[cyclopenta[b]pyridine-6,3′-pyrrolo[2,3-b]pyridine]-3-carboxamide]
Deaths [1]: 0 n (%) | TEAE leading to treatment discontinuation [1]: 13 (5.1) n (%) | TEAEs, participants [1]: 145 (56.4) n (%) | TESAE Anal abscess [1]: 1 (0.4) n (%) | TESAE Benign ovarian tumour [1]: 1 (0.4) n (%) | TESAE COVID-19 [1]: 0 n (%) | TESAE COVID-19 pneumonia [1]: 1 (0.4) n (%) | TESAE Cholelithiasis [1]: 0 n (%) | TESAE Epicondylitis [1]: 0 n (%) | TESAE Fall [1]: 0 n (%) | TESAE Hip fracture [1]: 0 n (%) | TESAE Nasal septum deviation [1]: 0 n (%) | TESAE Plasma cell myeloma [1]: 0 n (%) | Deaths [2]: 0 n (%) | TESAE COVID-19 [2]: 1 (0.4) n (%) | TESAE COVID-19 pneumonia [2]: 0 n (%) | serious adverse events considered related to study treatment by the investigator (in vivo): None
